Measured values published in ChEMBL document CHEMBL3792287, “Antiplasmodial phloroglucinol derivatives from Syncarpia glomulifera” (Bioorg Med Chem, 2016).

How the values were obtained:
Plasmodium falciparum = assay: Antiplasmodial activity against Plasmodium falciparum Dd2 incubated under low oxygen conditions after 72 hrs by SYBR green assay; assay type: functional, organism-based; details: Dd2, 72 h
HEK293 [1] = assay: Cytotoxicity against HEK293 cells assessed as reduction in cell viability at 100 uM after 24 hrs by resazurin dye based fluorescence assay; details: human, hek293, 24 h
[2] = Cytotoxicity against HEK293 cells assessed as reduction in cell viability at 50 uM after 24 hrs by resazurin dye based fluorescence assay; details: human, read-out: INH
HEK293 [3] = assay: Cytotoxicity against HEK293 cells assessed as reduction in cell viability up to 3.125 uM after 24 hrs by resazurin dye based fluorescence assay; details: human, hek293, 24 h

| SMILES | IC50 (Plasmodium falciparum) [µM] | Activity (HEK293 [1]) | cytotoxicity at 24 h, 50 µM [2] [%] | Activity (HEK293 [3]) |
| --- | --- | --- | --- | --- |
| C[C@@H]1CC[C@H]2[C@@H](C)C(=O)O[C@@H]3O[C@@]4(C)CC[C@@H]1[C@]32OO4 [ARTEMISININ] | 0.0062 |  |  |  |
| C[C@H]1[C@H](C)CC[C@]2(C(=O)O)CC[C@]3(C)C(=CC[C@@H]4[C@@]5(C)CC[C@H](O)C(C)(C)[C@@H]5CC[C@]43C)[C@H]12 [URSOLIC ACID] | > 40 |  |  |  |
| C=C(C)[C@@H]1CC[C@]2(C(=O)O)CC[C@]3(C)[C@H](CC[C@@H]4[C@@]5(C)CC[C@H](O)C(C)(C)[C@@H]5CC[C@]43C)[C@@H]12 [BETULINIC ACID] | 3.44 |  |  |  |
| CCCCCC(=O)c1c(O)cc(O)cc1O | > 80 |  |  |  |
| CC(=O)O[C@H]1CC[C@]2(C)[C@H]3CC=C4[C@@H]5[C@@H](C)[C@H](C)CC[C@]5(C(=O)O)CC[C@@]4(C)[C@]3(C)CC[C@H]2C1(C)C [O-ACETYLURSOLIC ACID] | 12.1 |  |  |  |

Further compounds by falling IC50 (Plasmodium falciparum), results first:

| IC50 (Plasmodium falciparum) [µM] | SMILES | Activity (HEK293 [1]) | cytotoxicity at 24 h, 50 µM [2] [%] | Activity (HEK293 [3]) |
| --- | --- | --- | --- | --- |
| 3.81 | CC(C)=CCCC1=CCC2(C(=O)C(C)(C)C(=O)C(C)(C)C2=O)C(CC(C)C)C1 (racemic) | Non-toxic |  |  |
| 0.1 | CCCCCC(=O)c1c(O)cc(O)c2c1OC1=C(C(=O)C(C)(C)C(=O)C1(C)C)C2CC(C)C (racemic) |  | 58 | Non-toxic |
